From the supplement of paper PMC10307832

Experiments:
Assay in all cases: relative viability (nuclei count vs DMSO), 5 days (fraction); higher = more cells survive
Zebularine + Linsitinib = compound: O=c1ncccn1[C@@H]1O[C@H](CO)[C@@H](O)[C@H]1O [Zebularine] + C[C@]1(O)C[C@@H](c2nc(-c3ccc4ccc(-c5ccccc5)nc4c3)c3c(N)nccn32)C1 [Linsitinib] (partner 1 µM)
In short: (§1)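 For relative viability, nuclei counts in treated wells were divided by those in vehicle wells. Lung cancer cell lines had been pin-tool dosed in 1536-well plates the day after seeding and cultured for 5 days, then fixed and stained in one step (final 0.05% Triton X-100, 1% formaldehyde, 1 ug/ml Hoechst) and imaged at 4×. Doses were one drug alone or a fixed anchor-drug dose plus five library-drug doses (not always all listed) in √10 steps, and values are duplicate-plate medians.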

BI-D1870 + Decitabine = compound: CC(C)CCN1c2nc(Nc3cc(F)c(O)c(F)c3)ncc2N(C)C(=O)C1C [BI-D1870] + Nc1ncn([C@H]2C[C@H](O)[C@@H](CO)O2)c(=O)n1 [Decitabine] (partner 2 µM)
In short: as §1

Zebularine = compound: O=c1ncccn1[C@@H]1O[C@H](CO)[C@@H](O)[C@H]1O [Zebularine]
In short: (§2)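 Cells of lung cancer lines were placed in 1536-well plates and kept overnight at 37 °C. Pinning then delivered five library-drug doses (not always all listed), spaced by √10, onto plates anchored with vehicle, and the cells were left 5 days without changing medium. One step fixed, permeabilised and stained them with Hoechst, and MetaXpress counted nuclei in 4× images. Viability, as a median over plates, is treated-well nuclei divided by vehicle-well nuclei, with acceptance only at control CV below 25% and at least one doubling.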

BI-D1870 = compound: CC(C)CCN1c2nc(Nc3cc(F)c(O)c(F)c3)ncc2N(C)C(=O)C1C [BI-D1870]
In short: as §2

Work on UMC-11 yielded a relative viability (Zebularine + Linsitinib; first compound 1 µM) of 1.21, a relative viability (Zebularine + Linsitinib; first compound 3.162 µM) of 1.02 and a relative viability (Zebularine + Linsitinib; first compound 10 µM) of 0.691. For the same cell line, the relative viability (Zebularine + Linsitinib; first compound 31.62 µM) was 0.574, the relative viability (Zebularine + Linsitinib; first compound 100 µM) was 0.418 and the relative viability (BI-D1870 + Decitabine; first compound 0.04 µM) was 0.581. It also gave a relative viability (BI-D1870 + Decitabine; first compound 0.1265 µM) of 0.466, a relative viability (BI-D1870 + Decitabine; first compound 0.4 µM) of 0.669 and a relative viability (BI-D1870 + Decitabine; first compound 1.265 µM) of 0.674. It also gave a relative viability (BI-D1870 + Decitabine; first compound 4 µM) of 0.622, a relative viability (Zebularine; 1 µM) of 1.1 and a relative viability (Zebularine; 3.162 µM) of 0.824. It also gave a relative viability (Zebularine; 10 µM) of 0.673, a relative viability (Zebularine; 31.62 µM) of 0.653 and a relative viability (Zebularine; 100 µM) of 0.422. It also gave a relative viability (BI-D1870; 0.04 µM) of 0.972, a relative viability (BI-D1870; 0.1265 µM) of 0.949 and a relative viability (BI-D1870; 0.4 µM) of 1.04. The relative viability (BI-D1870; 1.265 µM) was 1.02 and the relative viability (BI-D1870; 4 µM) was 0.387.
